Assay results taken from PMC12736570, “The Absorption, Distribution, Excretion, and In Vitro Hepatic Microsomal Metabolism of the Novel CDK Compound XMD12 in Sprague-Dawley Rats” (Pharmaceutics, 2025).
Values joined by “and” are separate entries in the source; they are usually repeats but may differ in a detail not shown here. Equal values may be shown once. Read-outs that look alike come from different tables or passages of the source. Values belong to the molecule of their own block, whether it stands above or below them.

Tests used:
[1] = cited from earlier work
[2] = system: plasma protein; details: cited from earlier work
[3] = Plasma pharmacokinetics after single intravenous administration and gastric gavage; assay type: in vivo, Sprague-Dawley rats; details: for AUC0-t / AUC0-∞ / CL / Cmax / MRT0-t / Tmax / V / t1/2: n = 5
Procedure: Ten healthy SD rats were divided into two groups, each comprising five rats. Following a 12-h fasting period, the rats in the respective groups were administered XMD12 at dosages of 10 mg/kg via gastric gavage and 2 mg/kg via tail vein injection. The rats were anesthetized with isoflurane, and blood samples of approximately 150 uL were collected via the eye socket vein using capillaries. These samples were obtained prior to dosing (at 0 min) and at intervals of 0.083, 0.25, 0.5, 1, 1.5, 2.5, 4, 6, 8, 12 and 24 h post-dosing. The blood was then placed in centrifuge tubes pre-treated with heparin sodium, centrifuged at 3000 rpm for 10 min, and the resulting supernatant was stored in a refrigerator at −20 °C. The plasma samples underwent processing as per the outlined “Sample Preparation” methods and were analyzed using the specified procedures under “Instrument Conditions” to ascertain XMD12 concentration in the rat plasma at various time points. Utilizing DAS 3.2.8 (BioGuider Co., Shanghai, China), pharmacokinetic software facilitated data processing, computation of pertinent pharmacokinetic parameters, and the creation of blood concentration–time curves for the drug.

[4] = Tissue distribution study after gastric gavage; assay type: in vivo, Sprague-Dawley rats; details: gastric gavage 20 mg/kg
Procedure: Following a 12-h fasting period, 25 SD rats were randomly divided into 5 groups, each comprising 5 rats. These rats were administered the drug at a dosage of 20 mg/kg through gastric gavage. […] Blood was drawn from the abdominal aorta to ensure minimal residual blood within the rats, followed by euthanasia. A variety of tissues including the heart, liver, spleen, lungs, kidneys, stomach, small intestine, fat, muscles, and brain were then harvested. After weighing, all samples were stored in a freezer at −80 °C. The subsequent processing and analysis followed the described methods, aiming to determine the concentration of XMD12 in each tissue sample at different time intervals.

[5] = Metabolic stability in rat liver microsome incubation system; assay type: in vitro ADME; details: rat liver microsomes
Procedure: Rat liver microsomes (CYP450) were introduced into centrifuge tubes containing phosphate buffer. Different concentrations of the test compound were added to the experimental group, while an equal amount of buffer was added to the control group. Following a 10-min pre-incubation, NADPH was introduced to initiate the reaction, and the mixture was then incubated at 37 °C in a water bath for […]. The incubation system was composed of 10 μL of XMD12 substrate (0.5 μg/mL), 5 μL of rat liver microsomes (20 mg/mL), 20 μL of an NADPH generating system at a final concentration of 1 mM, and 465 μL of phosphate-buffered saline (pH 7.4). The NADPH generating system was prepared by mixing with 5 μL of a complementary Mix solution prior to use. This Mix solution contained MgCl2, EDTA, glucose-6-phosphate, glucose-6-phosphate dehydrogenase, and oxidized nicotinamide adenine dinucleotide phosphate (NADP^+). At intervals of 0, 5, 15, 30, 45, 60, 90, and 120 min, the reaction was halted by adding a cold acetonitrile solution containing the internal standard at a 1:2 ratio. This mixture underwent vigorous vortexing for 3 min before being centrifuged at 14,000 rpm for 10 min. The resulting supernatant was dried using nitrogen gas and subsequently reconstituted with 50% acetonitrile. After thorough vortexing for 2 min, the solution underwent a second centrifugation at 14,000 rpm for 10 min, and the supernatant was then injected into LC-MS/MS for analysis.

[6] = Urine and feces excretion study after gastric gavage; assay type: in vivo, Sprague-Dawley rats; details: gastric gavage 20 mg/kg
Procedure: Five male SD rats were housed individually in metabolic cages for adaptation for a day. During this period, urine and feces were collected as blank samples. The following day, the rats were orally administered XMD12 at a dose of 20 mg/kg by gastric gavage. Urine and feces samples were then collected at intervals of 0–4 h, 4–8 h, 8–12 h, 12–24 h, and 24–36 h post-administration. Measurements of volume and weight were recorded for each sample. Employing the outlined procedures, these samples underwent processing and analysis to determine the presence of XMD12 across different time spans within the collected urine and feces samples.

[7] = Stability of XMD12 QC samples in rat plasma and liver homogenate; assay type: in vitro ADME
Text: Our analytical approach adheres to a comprehensive set of validation procedures in accordance with the recommendations outlined in the U.S. Food and Drug Administration’s Bioanalytical Method Validation Guidance (USFDA, 2018). These validation steps encompass a range of critical factors, including method specificity, linearity, sensitivity, carryover effect, accuracy, precision, matrix effect, recovery, dilution integrity, and stability. In assessing the method’s selectivity, we initiated the process by comparing chromatograms obtained from various sample sources. These sources included blank rat plasma, blank rat serum samples spiked with a mixture of standards, and rat plasma samples sourced from pharmacokinetic studies conducted on rats. This evaluation concurrently aided us in identifying and addressing any potential interferences that may occur within the acquisition window of XMD12 and the internal standard (IS). To evaluate linearity, a series of XMD12 concentrations was introduced into blank plasma, allowing us to establish a linear regression equation. The calibration curve (n = 5) was constructed by plotting the ratio of peak areas of XMD12 to IS (y-axis) against the nominal concentration ratio of XMD12 to IS (x-axis), followed by subsequent linear regression analysis. The lower limit of quantification (LLOQ) was defined as the lowest concentration point on the calibration curve that guarantees reliable quantification while maintaining accuracy within the range of 80–120% and precision below 20%. We conducted assessments of intra-day and inter-day precision and accuracy by performing six replicate tests on quality control (QC) samples at concentrations of 3, 120, and 1500 ng/mL over both a single day and a span of three days. Matrix effects and extraction recovery were evaluated through a post-extraction addition approach. Furthermore, we conducted a study on the stability of QC samples with high, medium, and low concentrations under four distinct conditions. […]

[8] = p.o. 10 mg∙kg^−1 (gastric gavage), SD rats

SMILES: CN(C)C(=O)c1cc2cnc(Nc3ccc(N4CCNCC4)cn3)nc2n1C1CCCC1 [Ribociclib]
- oral bioavailability ([1]; human, in vivo): 65.8%
- Tmax ([1]; human, in vivo): 1 to 5 h
- elimination half-life ([1]; human, in vivo): 30 to 55 h
- fecal excretion ([1]; human, in vivo): 69.1%
- volume of distribution (Vd) ([1]; human, in vivo): 1090 L

SMILES: CCN1CCN(Cc2ccc(Nc3ncc(F)c(-c4cc(F)c5nc(C)n(C(C)C)c5c4)n3)nc2)CC1 [Abemaciclib]
- plasma protein binding ([2]; plasma): 96.3%
- elimination half-life [1]: 17 to 38 h
- oral bioavailability ([1]; human, in vivo): 45%
- Tmax ([1]; human, in vivo): under 8 h
- fecal excretion ([1]; reported in humans): 81%

SMILES: CC(=O)c1c(C)c2cnc(Nc3ccc(N4CCNCC4)cn3)nc2n(C2CCCC2)c1=O [Palbociclib]
- plasma protein binding [2]: 85.3%
- Tmax [1]: 6 to 12 h
- elimination half-life [1]: 24 to 34 h
- volume of distribution [1]: ~2800 L
- volume of distribution (Vd) ([1]; reported in humans): ~ 2800 L

- plasma concentration ([3]; gastric gavage 10 mg/kg, within 8 h): approaching the LLOQ
- plasma concentration ([3]; i.v. 2 mg/kg, within 30 min): 59.88 ng/mL
- AUC0-t ([3]; i.v. 2 mg∙kg^−1, SD rats): 357.21 ± 66.60 ng·h/mL
- AUC0-∞ ([3]; i.v. 2 mg∙kg^−1, SD rats): 360.03 ± 66.00 ng·h/mL
- CL ([3]; i.v. 2 mg∙kg^−1, SD rats): 94.8 ± 15.8 mL/min/kg
- Cmax ([3]; i.v. 2 mg∙kg^−1, SD rats): 827.00 ± 191.30 ng/mL
- MRT0-t ([3]; i.v. 2 mg∙kg^−1, SD rats): 0.74 ± 0.08 h
- Tmax ([3]; i.v. 2 mg∙kg^−1, SD rats): 0.083 h
- V ([3]; i.v. 2 mg∙kg^−1, SD rats): 12.29 ± 3.98 L/kg
- t1/2 ([3]; i.v. 2 mg∙kg^−1, SD rats): 1.47 ± 0.29 h
- peak concentration after gastric gavage relative to intravenous levels ([3]; p.o. 10 mg/kg vs i.v. 2 mg/kg): below 5%
- AUC0-t [3, 8]: 117.78 ± 28.97 ng·h/mL
- AUC0-∞ [3, 8]: 120.06 ± 30.19 ng·h/mL
- CL [3, 8]: 1444 ± 278.7 mL/min/kg
- Cmax [3, 8]: 38.26 ± 10.90 ng/mL
- MRT0-t [3, 8]: 2.475 ± 0.344 h
- Tmax [3, 8]: 1.300 ± 0.758 h
- V [3, 8]: 150.59 ± 34.37 L/kg
- t1/2 [3, 8]: 1.21 ± 0.16 h
- F (bioavailability) ([3]; p.o. 10 mg∙kg^−1 vs i.v. 2 mg∙kg^−1, SD rats): 6.67%
- plasma half-life ([3]; rat plasma, route not stated): 1 h
- time to peak drug concentration in gastrointestinal tissues (stomach and intestines) [4]: 0.5 to 1 h
- brain concentration ([4]; 1 h): 930.17 ± 762.76 ng/g
- liver peak concentration ([4]; 1 h, 20 mg/kg): 24,768 ± 2436.62 ng/g and 24,768 ng/g
- liver concentration ([4]; 5 h): 2241.9 ± 1193.07 ng/g
- liver concentration as percent of the peak value ([4]; 5 h post-dosing): 9%
- concentration in all tissues as percent of peak levels ([4]; by 5 h): below 10%
- parent compound remaining ([5]; 5 min incubation, 37 °C, NADPH): 68.8%
- parent compound remaining ([5]; 45 min incubation): 20%
- metabolic rate ([5]; 120 min): 87%
- parent compound remaining ([5]; 120 min incubation): 13%
- intrinsic clearance (CLint) ([5]; CLint = k × (V/P), V 500 μL, P 0.1 mg): 98.5 μL/min/mg protein
- degradation rate constant (k) ([5]; regression of ln remaining percentage vs incubation time): 0.0197 min⁻¹
- interval of rapid fecal elimination [6]: 12 to 24 h
- peak urinary elimination window [6]: 12 to 24 h
- cumulative fecal excretion (of the administered dose) ([6]; 0–36 h): 62.36% ± 19.97%
- cumulative urinary excretion rate ([6]; 0–36 h, 20 mg/kg): 0.0068% and 0.0068% ± 0.0028%
- stability, Accuracy ([7]; liver, nominal 30.0 ng∙mL^−1, 6 h at room temperature): 100.93%
- stability, Accuracy ([7]; liver, nominal 30.0 ng∙mL^−1, 15 d, −80 °C): 97.53%
- stability, Accuracy ([7]; liver, nominal 30.0 ng∙mL^−1, autosample at ambient temperature for 6 h): 100.80%
- stability, Accuracy ([7]; liver, nominal 30.0 ng∙mL^−1, freeze–thaw (3 circles)): 100.47%
- stability, Accuracy ([7]; liver, nominal 800.0 ng∙mL^−1, 6 h at room temperature): 101.93%
- stability, Accuracy ([7]; liver, nominal 800.0 ng∙mL^−1, 15 d, −80 °C): 99.40%
- stability, Accuracy ([7]; liver, nominal 800.0 ng∙mL^−1, freeze–thaw (3 circles)): 99.78%
- stability, Accuracy ([7]; liver, nominal 1600.0 ng∙mL^−1, 6 h at room temperature): 101.56%
- stability, Accuracy ([7]; liver, nominal 1600.0 ng∙mL^−1, 15 d, −80 °C): 101.63%
- stability, Accuracy ([7]; liver, nominal 1600.0 ng∙mL^−1, autosample at ambient temperature for 6 h): 100.94%
- stability, Accuracy ([7]; liver, nominal 1600.0 ng∙mL^−1, freeze–thaw (3 circles)): 97.75%
- stability, Accuracy ([7]; plasma, nominal 5 ng∙mL^−1, 6 h at room temperature): 105.58%
- stability, Accuracy ([7]; plasma, nominal 5 ng∙mL^−1, 15 d, −80 °C): 94.20%
- stability, Accuracy ([7]; plasma, nominal 5 ng∙mL^−1, autosample at ambient temperature for 6 h): 92.16%
- stability, Accuracy ([7]; plasma, nominal 5 ng∙mL^−1, freeze–thaw (3 circles)): 97.10%
- stability, Accuracy ([7]; plasma, nominal 90 ng∙mL^−1, 6 h at room temperature): 108.60%
- stability, Accuracy ([7]; plasma, nominal 90 ng∙mL^−1, 15 d, −80 °C): 93.76%
- stability, Accuracy ([7]; plasma, nominal 90 ng∙mL^−1, autosample at ambient temperature for 6 h): 92.44%
- stability, Accuracy ([7]; plasma, nominal 90 ng∙mL^−1, freeze–thaw (3 circles)): 107.22%
- stability, Accuracy ([7]; plasma, nominal 800 ng∙mL^−1, 6 h at room temperature): 110.80%
- stability, Accuracy ([7]; plasma, nominal 800 ng∙mL^−1, 15 d, −80 °C): 102.22%
- stability, Accuracy ([7]; plasma, nominal 800 ng∙mL^−1, autosample at ambient temperature for 6 h): 90.02%
- stability, Accuracy ([7]; plasma, nominal 800 ng∙mL^−1, freeze–thaw (3 circles)): 106.80%
SMILES: COc1cc(F)ccc1-c1nc(Nc2cccc(N3CCOCC3)c2)ncc1F [XMD12]
- plasma concentration ([3]; i.v. 2 mg/kg, by 8 h): below the lower limit of quantification (LLOQ)
